Assay: Solubility of resveratrol in trilaureth-4 phosphate, judged by visual observation of transparency
Type: physicochemical
Design: key to Solubility: +: partially; from + = partially to +++ = fully soluble; +++: fully soluble
Settings: for Solubility: 40° C.
Protocol: To evaluate solubility of resveratrol in trilaureth-4 phosphate, the following procedure was adopted: lab glass beakers of 250 ml capacity were filled with the phosphate ester surfactant in the range as indicated in Table 1. The final volume was 50 ml. Solubilization occurs almost instantaneously, however the beakers were vigorously shaken for about 1 minute at 6000 rpm. Level of solubility was judged by visual observation of transparency.

threshold level of solubility (in trilaureth-4 phosphate): around 10%
solubility in the emulsifier (in trilaureth-4 phosphate, room temperature): solubilizes well
Solubility (resveratrol 2 wt.-% in trilaureth-4 phosphate 98 wt.-%): +++
Solubility (resveratrol 4 wt.-% in trilaureth-4 phosphate 96 wt.-%): +++
Solubility (resveratrol 6 wt.-% in trilaureth-4 phosphate 94 wt.-%): +++
Solubility (resveratrol 8 wt.-% in trilaureth-4 phosphate 92 wt.-%): +++
Solubility (resveratrol 10 wt.-% in trilaureth-4 phosphate 90 wt.-%): +++
Solubility (resveratrol 12 wt.-% in trilaureth-4 phosphate 88 wt.-%): ++
SMILES: Oc1ccc(/C=C/c2cc(O)cc(O)c2)cc1 [Resveratrol, 5-[(1E)-2-(4-hydroxyphenyl)ethenyl]-1,3-Benzenediol]

— patent US9254252B2, “Compounds” (DSM IP ASSETS B.V., priority 2011, dated 2016)
